# Experimental data taken from article PMC12040169 (PLOS Biology, 2025).
# Experiment: in vitro
# Settings: human, hela cells, % viability
row,SMILES,"viability at 28.5 h, 10 µM [%]"
1,Cc1ccc(Oc2ccc(C(F)(F)F)cc2[N+](=O)[O-])c(Br)c1 [CBK002817],93.1
2,Cn1ncc2c1CCCN(C(=O)CCCOc1ccccc1F)C2 [CBK285278],85
3,O=C(CSc1nnc(-c2ccncc2)n1-c1ccccc1)N/N=C/c1c[nH]c2ccccc12 [CBK262776],90.5
4,O=C(O)CCCNS(=O)(=O)c1ccc(I)cc1 [CBK269160],102
5,O=C(O)c1cc(C(=O)O)cc(N2C(=O)c3ccc(-c4ccc5c(c4)C(=O)N(c4cc(C(=O)O)cc(C(=O)O)c4)C5=O)cc3C2=O)c1 [CBK261331],96.6
6,CC(Cc1cccs1)NC(=O)CSCc1ccco1 (centres unmarked) [CBK283238],84.8
7,C=CCC1(CC=C)CCN1C(=O)c1cc(-c2c(C)nn(C)c2C)n[nH]1 [CBK282575],82.2
8,COc1cccc(CNc2ccc(-c3nc4ncccc4o3)cc2)c1OC [CBK269716],91
9,CC1(C(F)(F)F)OC(NC2C3CC4CC(C3)CC2C4)=NC1=O (centres unmarked) [CBK115312],114
10,Cn1c(CNc2ccccc2C(=O)O)c(C#N)c2ccccc21 [CBK286977],88.7
11,C[C@H](Nc1nc(-c2cccc(C(N)=O)c2)cnc1N)c1ccccc1 [CBK063715],97.1
12,O=S(=O)(NC1CCCCC1)c1ccc(Cl)cc1I [CBK057574],80.8
13,COCCC(=O)NC(Cc1ccsc1)c1nc(C)cs1 (centres unmarked) [CBK282830],85.1
14,CN(Cc1ccccc1)c1nccnc1-c1ccccc1F [CBK037410],95
15,Cc1ccccc1C(c1cnccn1)N(C)C(=O)C1CCN(C(=O)c2ccccc2)CC1 (centres unmarked) [CBK060208],94.4
16,COc1ccc(Cl)cc1NC(=O)CN(c1cccc(C(C)=O)c1)S(C)(=O)=O [CBK267835],108
17,CS(=O)(=O)Nc1ccc(-c2ccsc2)c2ccccc12 [CBK083742],98.7
18,Cc1csc2ncc(C(=O)NCc3ccc4c(c3)OCO4)c(=O)n12 [CBK287292],109
19,COc1ccc(CC(=O)Nc2ccc(OCC(=O)O)cc2)cc1 [CBK264244],103
20,N#C/C(=C\c1ccc(-c2ccc(S(N)(=O)=O)cc2)o1)c1nc2ncc(Br)cc2[nH]1 [CBK266288],97.6
21,CC(=O)Nc1ccc(CNC(=O)c2cccnc2O)cc1 [CBK304559],107

row,SMILES,"viability at 28.5 h, 10 µM [%]"
1,CC(=O)NC(Cc1c[nH]c2ccccc12)/C(C)=N/O (centres unmarked) [CBK022711],120
2,Cc1cc(NC(=O)C(C)(C)Oc2ccc(Cl)cc2)nc2c1c(=O)oc1ccccc12 [CBK291132],112
3,c1ccc2oc(NC3=NCN(Cc4ccc5c(c4)OCO5)CN3)nc2c1 [CBK267964],95.1
4,COc1ccc(S(=O)(=O)N(C)CC(=O)Nc2ccccc2C(F)(F)F)cc1OC [CBK266159],106
5,CCc1nc(C)c(C(C)N(C)CC(=O)NCc2ccco2)s1 (centres unmarked) [CBK305203],86.6
6,O=C(O)c1ccc(NC(=O)C2CCN(S(=O)(=O)c3ccccc3)CC2)cc1 [CBK265181],110
7,O=C(NCCc1c[nH]cn1)N1CCCN(Cc2ccc(F)cc2)CC1 [CBK307323],111
8,O=C(O)CC(NS(=O)(=O)c1cccc2nsnc12)C(=O)O (centres unmarked) [CBK073316],112
9,Nc1nonc1C(=O)NCCNC(=O)c1ccco1 [CBK058480],99.1
10,COc1ccc(CC2CCCN2C(=O)Cn2cncn2)cc1 (centres unmarked) [CBK306351],97.3
11,Cc1oc(C(=O)Nc2cccc(CCc3ccncc3)c2)cc1CN1CCOCC1 [CBK285547],92.8
12,Cc1cc([N+](=O)[O-])ccc1-c1ccc(C(=O)Nc2ccc(O)c(-c3nc4ccccc4s3)c2)o1 [CBK263421],93
13,Cc1cc2c(o1)CCc1sc(N(C)C(=O)C3CCCO3)nc1-2 (centres unmarked) [CBK281932],80.3
14,O=C(Cn1c(-c2cncs2)nc2ccccc21)Nc1ccc(C(=O)N2CCCCC2)cc1 [CBK269439],102
15,OCCN1CC2(CCN(Cc3c(F)cccc3F)CC2)c2ccccc21 [CBK137010],109
16,CC(=O)N[C@H]1CC[C@]2(C)CCC([C@H](C)C(=O)NCCN3CCCC3)[C@H](O)[C@H]2[C@@H]1C (some centres unmarked) [CBK289440],86.5
17,Cc1cc(CNS(=O)(=O)c2cccc3nonc23)nn1C [CBK062157],98.2
18,O=C(CSc1ccc(Cl)cc1)Nc1ccc(S(=O)(=O)N2CCOCC2)cc1 [CBK262723],95
19,Cc1cc(C[C@@H]2COC[C@H]2NCc2ccccc2Cl)on1 [CBK282969],94.8
20,CCCCC(c1cccnc1)N(C)C(=O)c1cc(CC)[nH]c(=O)c1 (centres unmarked) [CBK307216],107
21,O=C(Nc1nccs1)c1cc(=O)c2ccccc2o1 [CBK287570],105

row,SMILES,"viability at 28.5 h, 10 µM [%]"
1,O=C(Cc1c[nH]c2ccccc12)N1CCC(F)CC1 [CBK200274],118
2,CC(C(=O)N1CCC2(CC1)NC(=O)c1ccccc1N2)(c1ccccc1)c1ccccc1 [CBK286308],108
3,Cc1ccc(CN(CCCn2ccnc2)Cc2ccsc2)o1 [CBK283253],96.4
4,c1cncc(-c2csc(Nc3nc4cc5c(cc4s3)OCO5)n2)c1 [CBK287490],87.2
5,COc1ccc2ccccc2c1CN1CCN(Cc2ccccc2)CC1 [CBK261913],98.5
6,O=C1c2ccccc2C(=O)N1CC1c2ccccc2CCN1S(=O)(=O)c1cccc2nsnc12 (centres unmarked) [CBK261133],108
7,CCCCn1nc(C(=O)N2CCCCC2c2ncc(-c3cccc(F)c3)[nH]2)ccc1=O (centres unmarked) [CBK291149],98.6
8,Cc1nn(CCC#N)c(C)c1[C@@H]1C=C[C@@H](NS(=O)(=O)c2ccccc2)C1 [CBK288805],91
9,Cc1nn(CCCC(=O)O)c(C)c1I [CBK269796],91.3
10,COc1ccc([C@@]23CC[C@@H](NC(=O)Nc4cccc(Cl)c4)C[C@@H]2CN(C)C3)cc1OC [CBK081375T],96.8
11,O=C(C[n+]1cccc(C(=O)N/N=C/c2ccc(Br)cc2)c1)c1ccccc1 [CBK262063B],90.1
12,O=C(O)C1CNC(=O)N1C(=O)OCc1ccccc1 (centres unmarked) [CBK057462],98.8
13,Cc1ccc(C#N)cc1S(=O)(=O)NC(=O)COCC1CC1 [CBK304427],113
14,COc1ccc2c(c1)CC1(CCC(NCCCC(=O)c3ccc(F)cc3)CC1)C2 (centres unmarked) [CBK016054C],87.1
15,O=S(=O)(O)c1cc(O)c2c(/N=N/c3c(S(=O)(=O)O)cc4cc(S(=O)(=O)O)cc(O)c4c3O)cc(S(=O)(=O)O)cc2c1 [CBK260934],102
16,Cc1nn(C)c(Cl)c1S(=O)(=O)Nc1ccc2cn[nH]c2c1 [CBK067141],90.2
17,COC(=O)C1=C(C)N(c2ccc(C(=O)O)cc2)C(=O)NC1c1cccc(OC)c1OC (centres unmarked) [CBK295355],112
18,CN(Cc1ccccc1)C(=O)[C@@H]1Cc2[nH]cnc2CN1Cc1cc2ccccc2o1 [CBK288978],108
19,COc1cc([N+](=O)[O-])ccc1NC(=O)CCN1C(=O)C2C3CCC(C3)C2C1=O (centres unmarked) [CBK265141],99.3
20,COc1ccc(NC(=S)NCCCN(C)C)cc1 [CBK264292],96.2
